Format in all cases: functional
Experiment [1] has as its system G-361. The experiment is described as follows: Cytotoxicity against Homo sapiens (human) G361 cells by SRB assay. (In general: Sulforhodamine B stains cellular protein and so reports cell mass.)
The next experiment deals with Bacillus subtilis. Put plainly: Antibacterial activity against Bacillus subtilis NCIM 2545 at 20 ug/ml after 24 hr by agar diffusion method. The conditions noted are these: NCIM 2545, 24 h, read-out: IZ.
Experiment [2] has as its system G-361. Put plainly: Cytotoxicity against Homo sapiens (human) G361 cells assessed as cell growth at 10^-7 M by SRB assay relative to control. The conditions noted are these: read-out: Activity.
Experiment [3] has as its system G-361. The experiment is described as follows: Cytotoxicity against Homo sapiens (human) G361 cells assessed as cell growth at 10^-4 M by SRB assay relative to control. The conditions noted are these: read-out: Activity.
In a further experiment the test system is Escherichia coli. Put plainly: Antibacterial activity against Escherichia coli NCIM 2803 at 20 ug/ml after 24 hr by agar diffusion method. The conditions noted are these: NCIM 2803, 24 h, read-out: IZ. On the technique in general: Agar diffusion results depend on both activity and mobility in agar.
Experiment [4] concerns G-361. The experiment is described as follows: Cytotoxicity against Homo sapiens (human) G361 cells assessed as cell growth at 10^-6 M by SRB assay relative to control. The conditions noted are these: read-out: Activity.
The next experiment deals with Staphylococcus aureus. Put plainly: Antibacterial activity against Staphylococcus aureus NCIM 5021 at 20 ug/ml after 24 hr by agar diffusion method. The conditions noted are these: NCIM 5021, 24 h, read-out: IZ.
Experiment [5] concerns G-361. Put plainly: Cytotoxicity against Homo sapiens (human) G361 cells assessed as cell growth at 10^-5 M by SRB assay relative to control. The conditions noted are these: read-out: Activity.
The subject of experiment [6] is Staphylococcus epidermidis. The experiment is described as follows: Antibacterial activity against Staphylococcus epidermidis NCIM 2493 at 20 ug/ml after 24 hr by agar diffusion method. The conditions noted are these: NCIM 2493, 24 h, read-out: IZ.

The structures appear in SMILES notation. Some results are limits rather than exact numbers.

Consider seven molecules from ChEMBL document CHEMBL3044652, “Synthesis of novel 2-alkyl-4-substituted-amino-pyrazolo[3,4-d]pyrimidines as new leads for anti-bacterial and anti-cancer activity” (2013).

In turn, `Cc1nc(N2CCOCC2)c2cnn(-c3ccccc3)c2n1` showed a GI50 with G-361 [1] above 100 µM. The LC50 with G-361 [1] is above 100 µM. The concentration for total growth inhibition (TGI) in the experiment with G-361 [1] is above 100 µM. The zone of inhibition at 20 µg/mL with Bacillus subtilis worked out at 13.6 mm; with Escherichia coli, 12.7 mm; in the experiment on Staphylococcus aureus, 13.3 mm; in experiment [6] it was 13.6 mm. The growth at 0.1 µM in the experiment with G-361 [2] was determined as 100%. In the experiment with G-361 [3], the growth at 100 µM was 43.9%. For the same molecule, the growth at 1 µM with G-361 [4] stood at 100%. Moreover, the growth at 10 µM with G-361 [5] was 99.8%.
Consider `c1ccc(-n2ncc3c(N4CCOCC4)ncnc32)cc1`, for which the GI50 with G-361 [1] is above 100 µM. Further, the LC50 in the experiment on G-361 [1] was above 100 µM. In the experiment on G-361 [1], this molecule came in with a TGI above 100 µM. For the same molecule, the zone of inhibition at 20 µg/mL in the experiment on Bacillus subtilis came out at 12.8 mm; in the experiment with Escherichia coli, 13.3 mm; in the experiment on Staphylococcus aureus, 13.6 mm; in [6], 12.7 mm. Also, the growth at 0.1 µM in the experiment with G-361 [2] turned out to be 100%. For the same molecule, the growth at 100 µM with G-361 [3] was 61.5%. Also, in the experiment on G-361 [4], the growth at 1 µM worked out at 100%. The growth at 10 µM with G-361 [5] was 100%.
In the experiment on G-361 [1], `CCc1nc(NC(C)C)c2cnn(-c3ccccc3)c2n1` came in with a GI50 of 38 µM. Also, in the experiment on G-361 [1], the 50% lethal concentration (LC50) is above 100 µM. Moreover, the TGI in the experiment with G-361 [1] was above 100 µM. Moreover, the zone of inhibition at 20 µg/mL came out at 13.3 mm in the experiment on Bacillus subtilis, 13.3 mm in the experiment with Escherichia coli, 13.6 mm in the experiment on Staphylococcus aureus and 13.6 mm in [6]. Also, the growth at 0.1 µM with G-361 [2] was found to be 100%. Besides, the growth at 100 µM with G-361 [3] stood at 40%. The growth at 1 µM in the experiment with G-361 [4] is 96.4%. Also, the growth at 10 µM in the experiment with G-361 [5] amounted to 83.3%.
Consider `CCCNc1ncnc2c1cnn2-c1ccccc1`, for which the GI50 in the experiment with G-361 [1] is above 100 µM. Besides, the LC50 in the experiment on G-361 [1] is above 100 µM. In the experiment with G-361 [1], this molecule yielded a TGI above 100 µM. Moreover, the zone of inhibition at 20 µg/mL with Bacillus subtilis was determined as 13.2 mm; in the experiment with Escherichia coli, 13.2 mm; in the experiment with Staphylococcus aureus it was 12.7 mm; in experiment [6] it was 13.3 mm. The growth at 0.1 µM with G-361 [2] came to 100%. In addition, the growth at 100 µM in the experiment on G-361 [3] is 64.8%. In the experiment on G-361 [4], the growth at 1 µM stood at 100%. Besides, the growth at 10 µM in the experiment with G-361 [5] came out at 99.7%.
`CCCNc1nc(C)nc2c1cnn2-c1ccccc1` came in with a 50% growth inhibitory concentration (GI50) in the experiment on G-361 [1] of 36 µM. In the experiment with G-361 [1], the LC50 is above 100 µM. The molecule further yielded a TGI with G-361 [1] above 100 µM. The zone of inhibition at 20 µg/mL in the experiment with Bacillus subtilis stood at 13 mm; in the experiment on Escherichia coli, 12.7 mm; with Staphylococcus aureus, 13.6 mm; in experiment [6], 13.6 mm. Besides, the growth at 0.1 µM in the experiment on G-361 [2] came to 100%. The growth at 100 µM in the experiment with G-361 [3] stood at 25.3%. The growth at 1 µM in the experiment on G-361 [4] turned out to be 100%. For the same molecule, in the experiment with G-361 [5], the growth at 10 µM stood at 100%.
For the molecule `CC(C)NCc1nc(NC(C)C)c2cnn(-c3ccccc3)c2n1`, the GI50 in the experiment on G-361 [1] was above 100 µM. Besides, the LC50 in the experiment with G-361 [1] was above 100 µM. The molecule further yielded a TGI with G-361 [1] above 100 µM. Also, the zone of inhibition at 20 µg/mL in the experiment on Bacillus subtilis is 13.6 mm; with Escherichia coli it was 13 mm; with Staphylococcus aureus, 1.3 mm; in experiment [6], 1.33 mm. Moreover, in the experiment with G-361 [2], the growth at 0.1 µM came to 100%. Also, the growth at 100 µM in the experiment with G-361 [3] was determined as 56.5%. The growth at 1 µM with G-361 [4] was 100%. In the experiment with G-361 [5], the growth at 10 µM worked out at 99.7%.
Regarding `Cc1nc(NC(C)C)c2cnn(-c3ccccc3)c2n1`, the GI50 in the experiment with G-361 [1] amounted to 32 µM. This molecule yielded an LC50 with G-361 [1] above 100 µM. The TGI in the experiment with G-361 [1] is above 100 µM. The zone of inhibition at 20 µg/mL in the experiment on Bacillus subtilis was 13.6 mm; in the experiment on Escherichia coli, 13 mm; with Staphylococcus aureus, 13.3 mm; in experiment [6], 13.7 mm. For the same molecule, in the experiment with G-361 [2], the growth at 0.1 µM came out at 100%. Moreover, the growth at 100 µM in the experiment with G-361 [3] was 13.5%. Moreover, the growth at 1 µM in the experiment on G-361 [4] is 100%. For the same molecule, the growth at 10 µM in the experiment on G-361 [5] came out at 100%.

In general, GI50 refers to the concentration that inhibits growth by half. Low readings indicate more potent growth inhibition, high ones less potent growth inhibition. For orientation: LC50 means the concentration that kills 50% of the test population. A high value points to lower toxicity. By TGI is commonly meant the concentration giving total growth inhibition. A low value points to greater sensitivity of the cells.
